We go through 3 molecules from patent publication US20220088031A1, “METHODS AND COMPOSITIONS FOR TREATING RESISTANT AND RECURRENT FORMS OF CANCER” (Health Research, Inc., priority 2019, published 2022).

Holding throughout (assay type): cell-based, human
Test [1] deals with Nrf1 nuclear translocation in E006AA cells. Description: Immunoblot analysis of Nrf1 in cytosolic and nuclear fractions. The protocol:
Subcellular fractionation for the preparation of cytosolic and nuclear fractions: Cells were seeded on 10 cm cell culture plates for treatment. Cells were harvested via gently scraping. Cells were collected using centrifugation and washed twice with ice cold PBS. Cells were resuspended in cytosolic buffer (10 mM HEPES, pH 7.4; 10 mM KCl; 0.1 mM EDTA; 0.1 mM EGTA) supplemented with freshly added 1× protease inhibitor cocktail and 1 mM DTT. Cells were incubated in cytosolic buffer for 15 min in ice and 10% NP40 was added (12.4 μl 10% NP40 per 200 μl volume of cytosolic buffer) followed by vigorous vortexing for 45 sec. Cell homogenates were centrifuged at 14000 rpm for 2 min. The supernatant was collected in new tubes and stored as the cytosolic fraction. The nuclear pellet was washed 3 times with cytosolic buffer and lysed in nuclear lysis buffer (10 mM HEPES, 500 mM NaCl, 1 mM EDTA, 1 mM EGTA, 1% NP40) to prepare nuclear extract. Immunoblotting: Immunoblotting was performed as described previously. Protein lysates were prepared using a lysis in NP-40 buffer (50 mM Tris-HCl pH 7.4, 150 mM NaCl, 1 mM EDTA, 1 mM EGTA, 1% NP-40) supplemented with protease and phosphatase inhibitor cocktail. Protein content was quantified using a micro BCA protein estimation kit (Thermo Scientific, Waltham, Mass.; Cat #23235). Protein samples were resolved on 4-20% Criterion gels, transferred on nitrocellulose membranes (BioRad, Hercules, Calif.) and subjected to immunoblotting. Membranes were blocked in 5% fat free dry milk (Blotto, Santa Cruz, Dallas, Tex.; Cat #sc-2324) prepared in PBS-T (Tween-20) and incubated overnight in primary antibodies (1:1000 dilution) at 4° C. with continuous shaking. After washing with PBS-T, membranes were incubated in HRP conjugated anti-mouse or anti-rabbit secondary antibody at room temperature for 1 hr. After washing with PBS-T, proteins were detected using Clarity chemiluminescent reagent (BioRad, Hercules, Calif.; Cat #1705061) and X-Ray films (ASI, Fort Lauderdale, Fla.; Cat #XR1570). Membranes were stripped using stripping buffer and probed with HRP conjugated beta-actin antibody to ensure equal loading of proteins.
(In general: Immunoblotting shows a protein as a band on a membrane.)

In test [2] the test system is Nrf1 binding with CC promoter in E006AA cells. Nature of the test: Chromatin immunoprecipitation (ChIP) assay, Nrf1 binding with CC promoter. How it is done: Chromatin immunoprecipitation (ChIP) assay: The association of Nrf1 transcription factor with CYCS promoter within the LNCaP and E006AA cells was detected using a chromatin immunoprecipitation (ChIP) Assay Kit (Millipore, Billerica, Mass.; Cat #17-295) according to the manufacturer's instructions. In brief, 1 million cells were fixed in formaldehyde for 15 min and chromatin was sheared using Bioruptor sonication device for 10 min in ice with 30 sec on/off cycle (Diagenode, Denville, N.J.). Ten μ1 sonicated samples (of 2 ml total volume) were separated as input. Chromatin was immunoprecipitated with 1.0 μg of Nrf1 or normal rabbit IgG (Santa Cruz Biotechnology) antibody at 4° C. overnight. Each sample (5 μl) was used as a template for PCR amplification and 20 μl of the 50 μl PCR product was loaded onto agarose gels. CYCS oligonucleotide sequence encompasses the CYCS promoter segment that includes the Nrf1 binding sites for PCR primers viz 5′-[…]-3′ [SEQ ID:7] and 5′-[…]-3′ [SEQ ID:8]. PCR mixtures were amplified for 1 cycle at 94° C. for 5 min followed by 35 cycles at 94° C. for 30 s, 55° C. for 30 s and 72° C. for 30 s, and then subjected to final elongation at 72° C. for 10 min. PCR products were run on 2% agarose gel and analyzed using ethidium bromide staining.

Test [3] concerns E006AA cells. Description: Seahorse XF bioenergetics assay, glycolytic reserve capacity. The following applies: for glycolytic reserve capacity: in the presence of DOC, compared to control or DOC alone. How it is done:
Seahorse XF bioenergetics assay: Basal glycolytic reserve capacity in PC-3, DU145, and […] PCa cells was assessed using an Agilent seahorse XF glycolytic stress test kit (Agilent Technologies Inc., Wilmington, Del.) and a Seahorse XF96 analyzer (Agilent Technologies Inc., Wilmington, Del.) analyzer as described. ATP production in […] cells after treatment with drug combinations was assessed using a Mito Stress test kit (Agilent Technologies Inc., Wilmington, Del.).

For test [4], the system named is E006AA cells. Nature of the test: Immunoblot analysis of CC in cytosolic and mitochondrial fractions. The following applies: in combination with DOC (24 hrs). How it is done:
Subcellular fractionation for the preparation of cytosolic and mitochondrial fractions: Cells were seeded on 15 cm cell culture plates followed by treatment with various compounds for the preparation of cytosolic and mitochondrial fractions as described. Cells were harvested via gentle scraping, washed twice with ice cold 1×PBS, and resuspended in homogenization buffer (20 mM HEPES, pH 7.4; 10 mM KCl; 1.5 mM MgCl2; 1 mM EDTA; 1 mM EGTA; 250 mM sucrose) supplemented with freshly added 1× protease inhibitor cocktail and 1 mM DTT. Cells were incubated in homogenization buffer for 30 min in ice and homogenized using a dounce homogenizer (˜25 strokes using pestle A). Cell homogenates were pre-cleared of unbroken cells and debris using centrifugation at 1000 g for 10 min. The supernatant was collected in new tubes and centrifuged at 12000 rpm for 20 min to obtain a mitochondrial pellet, which was washed 3 times with homogenization buffer and lysed in NP40 buffer, and stored as the mitochondrial fraction. The supernatant was ultra-centrifuged to obtain purified cytosol.
Immunoblotting: Immunoblotting was performed as described previously. Protein lysates were prepared using a lysis in NP-40 buffer (50 mM Tris-HCl pH 7.4, 150 mM NaCl, 1 mM EDTA, 1 mM EGTA, 1% NP-40) supplemented with protease and phosphatase inhibitor cocktail. Protein content was quantified using a micro BCA protein estimation kit (Thermo Scientific, Waltham, Mass.; Cat #23235). Protein samples were resolved on 4-20% Criterion gels, transferred on nitrocellulose membranes (BioRad, Hercules, Calif.) and subjected to immunoblotting. Membranes were blocked in 5% fat free dry milk (Blotto, Santa Cruz, Dallas, Tex.; Cat #sc-2324) prepared in PBS-T (Tween-20) and incubated overnight in primary antibodies (1:1000 dilution) at 4° C. with continuous shaking. After washing with PBS-T, membranes were incubated in HRP conjugated anti-mouse or anti-rabbit secondary antibody at room temperature for 1 hr. After washing with PBS-T, proteins were detected using Clarity chemiluminescent reagent (BioRad, Hercules, Calif.; Cat #1705061) and X-Ray films (ASI, Fort Lauderdale, Fla.; Cat #XR1570). Membranes were stripped using stripping buffer and probed with HRP conjugated beta-actin antibody to ensure equal loading of proteins.

Test [5] concerns E006AA cells. Description: Cell death quantification, Trypan blue exclusion assay. The settings on record: combined treatment with DOC (24 hrs). The protocol:
Cell viability assay: PCa cells (5×10^4 cells/well) were seeded on 6-well cell culture plates and incubated with DOC (1-20 nM) for 24 hrs. Floating and attached cells were collected using trypsinization. Live and dead cells were counted under a light microscope using a trypan blue exclusion assay.

Entries after “also recorded” stand apart in the source; their conditions may differ.

As for “bisperoxovanadium 5-hydroxipyridine [AKT activator]”, the “translocation of Nrf1 to nucleus” value in test [1] (agent alone) and in test [1] (combined with DOC (24 hrs)) was “Enhanced translocation of Nrf1 to nucleus” throughout. The “binding of Nrf1 to the CC promoter” value in test [2] (agent alone) and in test [2] (combined with DOC (24 hrs)) was “enhanced binding of Nrf1 to the CC promoter” in each case. Besides, in the test on E006AA cells [3] (agent alone), the glycolytic reserve entry is listed as “inhibited glycolytic reserve”. Also, in the test on E006AA cells [3], the glycolytic reserve capacity result was “inhibited glycolytic reserve capacity”. The CC release entry with E006AA cells [4] is given as “CC release only in combination treatment; also recorded: resulted in CC release”. Also, the cell death result with E006AA cells [5] is “enhanced cell death”.
In the case of `Cc1ccc(NCCCc2ccccc2)c(N)c1` [NF-κB inhibitor, JSH-23], the “translocation of Nrf1 to nucleus” value in test [1] (agent alone) and in test [1] (combined with DOC (24 hrs)) was “Enhanced translocation of Nrf1 to nucleus” each time. Besides, the “binding of Nrf1 to the CC promoter” value in test [2] (agent alone) and in test [2] (combined with DOC (24 hrs)) was “enhanced binding of Nrf1 to the CC promoter” each time. The glycolytic reserve capacity entry with E006AA cells [3] was “inhibited glycolytic reserve capacity”. In addition, the CC release entry in the test with E006AA cells [4] is recorded as “resulted in CC release”. In the test on E006AA cells [5], the cell death entry was “enhanced cell death”.
With `CCc1ccc(/C=C2/SC(=S)NC2=O)cc1` [c-Myc inhibitor, 10058-F4], the “translocation of Nrf1 to nucleus” value in test [1] (agent alone) and in test [1] (combined with DOC (24 hrs)) was “Enhanced translocation of Nrf1 to nucleus” in each case. Also, the “binding of Nrf1 to the CC promoter” value in test [2] (agent alone) and in test [2] (combined with DOC (24 hrs)) was “enhanced binding of Nrf1 to the CC promoter” each time. In the test on E006AA cells [3], the glycolytic reserve capacity result was “inhibited glycolytic reserve capacity”. Also, in the test with E006AA cells [4], the CC release result is listed as “CC release only in combination treatment; also recorded: resulted in CC release”. In addition, the cell death entry in the test with E006AA cells [5] was “enhanced cell death”.
